Test results from ChEMBL document CHEMBL3991601, “The target landscape of clinical kinase drugs” (Science, 2017).
Each block holds one molecule with its values, some of them ahead of it. Activity calls are given as the source filed them.

Legend:
[1] = target: T1, STE20-related kinase adapter protein alpha (Homo sapiens, UniProt Q7RTN6)
T1 sequence (Q7RTN6 whole entry): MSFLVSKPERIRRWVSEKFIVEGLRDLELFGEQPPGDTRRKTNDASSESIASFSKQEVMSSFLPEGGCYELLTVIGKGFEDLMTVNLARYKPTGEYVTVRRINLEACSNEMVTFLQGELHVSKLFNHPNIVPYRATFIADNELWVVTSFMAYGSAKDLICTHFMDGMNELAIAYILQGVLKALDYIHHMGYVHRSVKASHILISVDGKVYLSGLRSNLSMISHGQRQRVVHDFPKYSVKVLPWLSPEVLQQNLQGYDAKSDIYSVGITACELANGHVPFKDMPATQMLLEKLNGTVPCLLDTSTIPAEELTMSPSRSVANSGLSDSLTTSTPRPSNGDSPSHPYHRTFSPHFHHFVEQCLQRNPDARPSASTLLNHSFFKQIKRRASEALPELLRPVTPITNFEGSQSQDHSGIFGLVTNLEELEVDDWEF

[2] = target: MAP/microtubule affinity-regulating kinase 3 (Homo sapiens, UniProt P27448)
Chain of MAP/microtubule affinity-regulating kinase 3 (P27448 whole entry): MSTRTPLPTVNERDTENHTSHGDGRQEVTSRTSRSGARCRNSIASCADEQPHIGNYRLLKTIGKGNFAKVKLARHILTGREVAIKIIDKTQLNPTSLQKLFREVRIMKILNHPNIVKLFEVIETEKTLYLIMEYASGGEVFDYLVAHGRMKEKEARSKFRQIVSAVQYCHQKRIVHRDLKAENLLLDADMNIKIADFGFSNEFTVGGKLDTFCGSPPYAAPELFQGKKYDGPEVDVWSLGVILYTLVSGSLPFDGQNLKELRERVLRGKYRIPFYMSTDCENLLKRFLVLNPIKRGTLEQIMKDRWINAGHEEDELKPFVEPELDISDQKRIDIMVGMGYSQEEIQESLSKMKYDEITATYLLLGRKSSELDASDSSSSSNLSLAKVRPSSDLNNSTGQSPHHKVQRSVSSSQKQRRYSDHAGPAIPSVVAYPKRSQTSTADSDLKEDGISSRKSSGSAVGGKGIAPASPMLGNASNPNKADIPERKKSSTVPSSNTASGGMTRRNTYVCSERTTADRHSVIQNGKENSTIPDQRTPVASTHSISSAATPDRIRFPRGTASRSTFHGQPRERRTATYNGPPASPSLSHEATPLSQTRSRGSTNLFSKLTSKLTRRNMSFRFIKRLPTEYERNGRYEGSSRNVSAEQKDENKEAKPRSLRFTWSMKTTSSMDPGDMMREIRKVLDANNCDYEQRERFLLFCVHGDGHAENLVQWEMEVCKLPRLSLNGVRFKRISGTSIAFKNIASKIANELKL

[3] = target: T2, Mitogen-activated protein kinase kinase kinase kinase 2 (Homo sapiens, UniProt Q12851)
T2 sequence (Q12851 whole entry): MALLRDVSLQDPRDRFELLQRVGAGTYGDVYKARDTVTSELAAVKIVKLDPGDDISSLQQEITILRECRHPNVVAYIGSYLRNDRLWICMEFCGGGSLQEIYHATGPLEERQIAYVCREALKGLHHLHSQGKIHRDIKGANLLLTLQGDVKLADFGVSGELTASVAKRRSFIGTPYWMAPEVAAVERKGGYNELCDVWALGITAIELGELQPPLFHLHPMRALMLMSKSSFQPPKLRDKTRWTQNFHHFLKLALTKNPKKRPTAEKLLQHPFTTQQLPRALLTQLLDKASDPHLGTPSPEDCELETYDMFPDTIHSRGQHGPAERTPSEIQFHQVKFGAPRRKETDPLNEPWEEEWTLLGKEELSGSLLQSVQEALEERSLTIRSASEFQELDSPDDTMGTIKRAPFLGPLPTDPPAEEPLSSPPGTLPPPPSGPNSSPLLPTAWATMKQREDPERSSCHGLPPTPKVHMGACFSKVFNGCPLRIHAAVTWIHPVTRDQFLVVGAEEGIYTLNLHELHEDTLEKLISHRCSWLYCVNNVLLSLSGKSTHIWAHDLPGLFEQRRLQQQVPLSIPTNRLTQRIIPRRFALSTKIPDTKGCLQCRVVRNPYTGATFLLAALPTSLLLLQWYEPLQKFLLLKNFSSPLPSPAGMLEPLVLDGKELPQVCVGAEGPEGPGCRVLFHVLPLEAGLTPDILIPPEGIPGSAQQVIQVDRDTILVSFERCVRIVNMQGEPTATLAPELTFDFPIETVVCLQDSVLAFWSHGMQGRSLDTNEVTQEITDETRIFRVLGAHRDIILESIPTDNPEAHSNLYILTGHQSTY

[4] = target: RAC-alpha serine/threonine-protein kinase (Homo sapiens, UniProt P31749)
Chain of RAC-alpha serine/threonine-protein kinase (P31749 whole entry): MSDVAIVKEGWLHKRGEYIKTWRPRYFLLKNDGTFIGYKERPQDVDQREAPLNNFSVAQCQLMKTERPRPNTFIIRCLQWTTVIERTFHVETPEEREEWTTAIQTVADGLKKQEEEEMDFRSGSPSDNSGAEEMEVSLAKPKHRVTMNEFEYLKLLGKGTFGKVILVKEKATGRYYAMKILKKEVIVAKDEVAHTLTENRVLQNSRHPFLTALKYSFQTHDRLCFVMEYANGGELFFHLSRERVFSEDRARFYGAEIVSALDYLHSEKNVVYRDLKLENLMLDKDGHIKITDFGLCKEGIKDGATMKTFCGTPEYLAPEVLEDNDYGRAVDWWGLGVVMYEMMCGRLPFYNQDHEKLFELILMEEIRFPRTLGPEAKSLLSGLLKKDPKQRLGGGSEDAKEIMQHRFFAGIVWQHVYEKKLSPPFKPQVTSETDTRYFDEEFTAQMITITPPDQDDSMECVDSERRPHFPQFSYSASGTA

Rab-like protein 3 = target: T3, Rab-like protein 3 (Homo sapiens, UniProt Q5HYI8)
T3 sequence (Q5HYI8 whole entry): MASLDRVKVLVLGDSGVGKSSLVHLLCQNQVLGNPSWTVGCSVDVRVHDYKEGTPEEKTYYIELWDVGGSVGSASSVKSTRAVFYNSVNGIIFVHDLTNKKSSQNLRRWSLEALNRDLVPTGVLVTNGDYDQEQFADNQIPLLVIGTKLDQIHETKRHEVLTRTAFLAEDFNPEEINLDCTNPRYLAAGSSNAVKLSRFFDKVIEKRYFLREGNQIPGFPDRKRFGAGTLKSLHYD

[5] = target: G protein-coupled receptor kinase 6 (Homo sapiens, UniProt P43250)
Chain of G protein-coupled receptor kinase 6 (P43250 whole entry): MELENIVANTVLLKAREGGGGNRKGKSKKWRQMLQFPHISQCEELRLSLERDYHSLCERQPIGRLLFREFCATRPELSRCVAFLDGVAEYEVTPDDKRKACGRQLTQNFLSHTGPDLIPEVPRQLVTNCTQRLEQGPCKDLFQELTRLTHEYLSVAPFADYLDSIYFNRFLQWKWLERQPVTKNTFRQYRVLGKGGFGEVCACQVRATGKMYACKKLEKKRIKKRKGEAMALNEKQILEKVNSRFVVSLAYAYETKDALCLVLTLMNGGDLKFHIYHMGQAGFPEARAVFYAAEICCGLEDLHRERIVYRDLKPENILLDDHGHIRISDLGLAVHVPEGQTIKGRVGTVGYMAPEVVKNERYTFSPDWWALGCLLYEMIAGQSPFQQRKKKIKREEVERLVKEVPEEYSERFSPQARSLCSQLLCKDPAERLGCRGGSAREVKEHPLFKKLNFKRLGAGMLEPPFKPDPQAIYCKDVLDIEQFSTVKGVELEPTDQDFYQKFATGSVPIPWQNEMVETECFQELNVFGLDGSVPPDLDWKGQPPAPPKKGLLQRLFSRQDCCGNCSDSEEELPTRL

[6] = target: T4, Ras-related protein Rab-10 (Homo sapiens, UniProt P61026)
T4 sequence (P61026 whole entry): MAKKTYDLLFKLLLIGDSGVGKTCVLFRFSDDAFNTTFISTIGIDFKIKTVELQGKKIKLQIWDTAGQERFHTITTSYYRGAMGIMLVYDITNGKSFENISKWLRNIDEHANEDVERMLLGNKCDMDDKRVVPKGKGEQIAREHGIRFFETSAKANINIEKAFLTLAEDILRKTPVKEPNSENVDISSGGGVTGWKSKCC

[7] = target: T5, Serine/threonine-protein kinase ULK1 (Homo sapiens, UniProt O75385)
T5 sequence (O75385 whole entry): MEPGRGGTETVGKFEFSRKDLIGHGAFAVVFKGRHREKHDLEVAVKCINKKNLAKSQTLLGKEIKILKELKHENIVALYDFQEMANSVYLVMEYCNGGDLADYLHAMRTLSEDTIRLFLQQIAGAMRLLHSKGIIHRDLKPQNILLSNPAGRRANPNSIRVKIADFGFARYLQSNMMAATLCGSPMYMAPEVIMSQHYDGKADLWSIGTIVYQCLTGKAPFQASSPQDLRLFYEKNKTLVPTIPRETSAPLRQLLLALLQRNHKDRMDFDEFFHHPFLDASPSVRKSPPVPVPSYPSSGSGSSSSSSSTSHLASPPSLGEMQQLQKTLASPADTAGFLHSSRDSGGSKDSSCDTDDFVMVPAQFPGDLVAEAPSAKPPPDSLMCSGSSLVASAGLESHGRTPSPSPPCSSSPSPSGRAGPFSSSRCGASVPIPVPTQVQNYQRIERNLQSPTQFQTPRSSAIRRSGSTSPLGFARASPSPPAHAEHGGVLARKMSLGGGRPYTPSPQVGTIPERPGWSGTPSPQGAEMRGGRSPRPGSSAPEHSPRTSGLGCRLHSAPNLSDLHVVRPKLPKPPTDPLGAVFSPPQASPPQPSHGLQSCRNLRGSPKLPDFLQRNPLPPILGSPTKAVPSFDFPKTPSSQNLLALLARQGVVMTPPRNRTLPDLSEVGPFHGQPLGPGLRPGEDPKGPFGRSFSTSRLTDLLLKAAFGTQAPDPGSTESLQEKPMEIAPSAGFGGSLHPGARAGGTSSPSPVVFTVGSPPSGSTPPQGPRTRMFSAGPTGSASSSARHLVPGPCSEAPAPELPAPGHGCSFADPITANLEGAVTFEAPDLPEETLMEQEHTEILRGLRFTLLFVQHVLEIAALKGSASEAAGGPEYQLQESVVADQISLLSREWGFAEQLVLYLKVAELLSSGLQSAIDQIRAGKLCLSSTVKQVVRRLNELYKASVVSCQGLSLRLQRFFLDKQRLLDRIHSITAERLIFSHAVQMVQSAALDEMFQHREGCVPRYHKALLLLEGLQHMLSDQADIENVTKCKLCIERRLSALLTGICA

[8] = target: Ribosomal protein S6 kinase alpha-1 (Homo sapiens, UniProt Q15418)
Chain of Ribosomal protein S6 kinase alpha-1 (Q15418 whole entry): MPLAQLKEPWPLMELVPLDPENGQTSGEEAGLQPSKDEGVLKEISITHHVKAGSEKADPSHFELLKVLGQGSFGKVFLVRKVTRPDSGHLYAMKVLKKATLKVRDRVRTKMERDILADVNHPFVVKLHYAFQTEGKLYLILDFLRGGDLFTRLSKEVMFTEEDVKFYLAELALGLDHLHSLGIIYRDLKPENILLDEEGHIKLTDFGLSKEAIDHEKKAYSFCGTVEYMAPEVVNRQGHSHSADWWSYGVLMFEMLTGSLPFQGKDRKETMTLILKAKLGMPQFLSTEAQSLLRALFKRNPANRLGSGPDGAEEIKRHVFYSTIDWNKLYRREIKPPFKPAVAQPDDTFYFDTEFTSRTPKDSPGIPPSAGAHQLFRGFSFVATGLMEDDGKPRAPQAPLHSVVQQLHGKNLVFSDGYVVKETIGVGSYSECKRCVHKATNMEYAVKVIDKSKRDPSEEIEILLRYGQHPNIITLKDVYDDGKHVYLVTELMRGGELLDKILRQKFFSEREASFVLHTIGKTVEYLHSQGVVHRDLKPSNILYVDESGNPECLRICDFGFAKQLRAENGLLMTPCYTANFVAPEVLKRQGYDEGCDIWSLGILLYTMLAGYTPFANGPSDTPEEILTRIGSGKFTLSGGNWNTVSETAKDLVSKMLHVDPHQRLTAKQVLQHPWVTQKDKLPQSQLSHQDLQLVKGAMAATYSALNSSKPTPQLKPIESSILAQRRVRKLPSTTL
Note: in the data inactive means no Kd found up to 30 µM.

Compound: CO[C@H]1C[C@@H]2CC[C@@H](C)[C@@](O)(O2)C(=O)C(=O)N2CCCC[C@H]2C(=O)O[C@H]([C@H](C)C[C@@H]2CC[C@@H](OC(=O)C(C)(CO)CO)[C@H](OC)C2)CC(=O)[C@H](C)/C=C(\C)[C@@H](O)[C@@H](OC)C(=O)[C@H](C)C[C@H](C)/C=C/C=C/C=C/1C [TEMSIROLIMUS]
Kd [1]: > 30 µM (inactive)
Kd [2]: > 30 µM (inactive)
Kd [3]: > 30 µM (inactive)
Kd [4]: > 30 µM (inactive)
Kd (Rab-like protein 3): > 30 µM (inactive)
Kd [5]: > 30 µM (inactive)
Kd [6]: > 30 µM (inactive)
Kd [7]: > 30 µM (inactive)
Kd [8]: > 30 µM (inactive)

Compound: COc1c(OCCCN2CCOCC2)ccc2c1N=C(NC(=O)c1cnc(N)nc1)N1CCN=C21 [COPANLISIB]
Kd [1]: > 30 µM (inactive)
Kd [2]: > 30 µM (inactive)
Kd [3]: > 30 µM (inactive)
Kd [4]: > 30 µM (inactive)
Kd (Rab-like protein 3): > 30 µM (inactive)
Kd [5]: > 30 µM (inactive)
Kd [6]: > 30 µM (inactive)
Kd [7]: > 30 µM (inactive)
Kd [8]: > 30 µM (inactive)

Compound: C=CC(=O)Nc1cc2c(Nc3ccc(F)c(Cl)c3)ncnc2cc1C#CC(C)(C)N1CCN(C)CC1 [AV-412 FREE BASE]
Kd [1]: > 30 µM (inactive)
Kd [2]: > 30 µM (inactive)
Kd [3]: > 30 µM (inactive)
Kd [4]: > 30 µM (inactive)
Kd (Rab-like protein 3): > 30 µM (inactive)
Kd [5]: > 30 µM (inactive)
Kd [6]: > 30 µM (inactive)
Kd [7]: > 30 µM (inactive)
Kd [8]: > 30 µM (inactive)

Compound: FC(F)(F)c1ccc(/C=C/c2nc(COc3ccc(CCCCn4ccnn4)cc3)co2)cc1 [MUBRITINIB]
Kd [1]: > 30 µM (inactive)
Kd [2]: > 30 µM (inactive)
Kd [3]: > 30 µM (inactive)
Kd [4]: > 30 µM (inactive)
Kd (Rab-like protein 3): > 30 µM (inactive)
Kd [5]: > 30 µM (inactive)
Kd [6]: > 30 µM (inactive)
Kd [7]: > 30 µM (inactive)
Kd [8]: > 30 µM (inactive)

Further lines, results first:

Kd [1]: > 30 µM (inactive)
Kd [2]: 1.93 µM (active)
Kd [3]: > 30 µM (inactive)
Kd [4]: > 30 µM (inactive)
Kd (Rab-like protein 3): > 30 µM (inactive)
Kd [5]: > 30 µM (inactive)
Kd [6]: > 30 µM (inactive)
Kd [7]: > 30 µM (inactive)
Kd [8]: > 30 µM (inactive)
Compound: Cn1cc(-c2cnn3c(N)c(Br)c([C@@H]4CCCNC4)nc23)cn1 [SCH-900776]

Kd [1]: > 30 µM (inactive)
Kd [2]: > 30 µM (inactive)
Kd [3]: > 30 µM (inactive)
Kd [4]: > 30 µM (inactive)
Kd (Rab-like protein 3): > 30 µM (inactive)
Kd [5]: > 30 µM (inactive)
Kd [6]: > 30 µM (inactive)
Kd [7]: > 30 µM (inactive)
Kd [8]: > 30 µM (inactive)
Compound: CCn1c(C(=O)N(C2CC2)C2CC2)cc2c3c(ncn3C)c(Nc3cc(C)n(C)n3)nc21 [BMS-911543]
